In PubChem BioAssay AID328 (DTP/NCI, 2004) one finds T/C data, which are given here for seven molecules.

Inconclusive results and toxic doses are left out.

Assay [1] deals with BDF1 mice, P388 leukemia ip. Nature of the assay: NCI In Vivo Anticancer Drug Screen. Data for tumor model P388 Leukemia (intraperitoneal) in B6D2F1 (BDF1) mice. The conditions noted are these: endpoint: mean survival time, higher = longer survival. Put shortly: (§1)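 Vehicle-dosed animals serve as the reference; survival of compound-dosed, tumour-implanted mice is divided by it.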

Assay [2] concerns BDF1 mice, P388 leukemia ip, median survival T/C. The assay is described as above. Conditions: endpoint: median survival time, higher = longer survival. Put shortly: as §1
The mark [3] stands for this setting: dose: 50.0 mg/kg/injection, schedule: Q01DX009 (ip), vehicle: Klucel (hydroxypropylcellulose) (HPC).
[4] abbreviates: dose: 100.0 mg/kg/injection, schedule: Q01DX009 (ip), vehicle: Klucel (hydroxypropylcellulose) (HPC).
The mark [5] stands for this setting: dose: 100.0 mg/kg/injection, schedule: Q04DX003 (ip), vehicle: Klucel (hydroxypropylcellulose) (HPC).
Setting [6] is: dose: 200.0 mg/kg/injection, schedule: Q04DX003 (ip), vehicle: Klucel (hydroxypropylcellulose) (HPC).

Turning to `CCN(CC)CCCC(C)NC(=O)c1cccc2c([N+](=O)[O-])cccc12` (stereo not drawn), the T/C in assay [1] (dose: 3.12 mg/kg/injection, schedule: Q01DX009 (ip), vehicle: water) is 94 % of control; in assay [1] (dose: 12.5 mg/kg/injection, schedule: Q01DX009 (ip), vehicle: water), 100 % of control; in assay [1] (dose: 25.0 mg/kg/injection, schedule: Q01DX009 (ip), vehicle: water), 110 % of control; in assay [1] (dose: 50.0 mg/kg/injection, schedule: Q01DX009 (ip), vehicle: water), 95 % of control; in assay [1] (dose: 100.0 mg/kg/injection, schedule: Q01DX009 (ip), vehicle: water), 106 % of control.
Turning to `CC(C)(O)/C=C/C(=O)[C@](C)(O)[C@H]1[C@H](O)C[C@@]2(C)[C@@H]3CC=C4[C@@H](C=C(O)C(=O)C4(C)C)[C@]3(C)C(=O)C[C@]12C`, the T/C is 100 % of control in assay [2] (dose: 6.25 mg/kg/injection, schedule: Q01DX009 (ip), vehicle: Klucel (hydroxypropylcellulose) (HPC)); 90 % of control in assay [2] (dose: 6.25 mg/kg/injection, schedule: Q04DX003 (ip), vehicle: other); 104 % of control in assay [2] (dose: 12.5 mg/kg/injection, schedule: Q04DX003 (ip), vehicle: other); 100 % of control in assay [2] (dose: 25.0 mg/kg/injection, schedule: Q01DX009 (ip), vehicle: Klucel (hydroxypropylcellulose) (HPC)); 104 % of control in assay [2] (dose: 25.0 mg/kg/injection, schedule: Q04DX003 (ip), vehicle: other); 100 % of control in assay [2] (setting [3]). Besides, the T/C in assay [2] (dose: 50.0 mg/kg/injection, schedule: Q04DX003 (ip), vehicle: other) is 109 % of control; in assay [1] (dose: 1.5 mg/kg/injection, schedule: Q01DX010 (ip), vehicle: carboxymethylcellulose (CMC)), 97 % of control; in assay [1] (dose: 3.0 mg/kg/injection, schedule: Q01DX010 (ip), vehicle: carboxymethylcellulose (CMC)), 99 % of control; in assay [1] (dose: 6.0 mg/kg/injection, schedule: Q01DX010 (ip), vehicle: carboxymethylcellulose (CMC)) it was 101 % of control.
For the molecule `CC1(C)C(=O)C(O)=CC2C1=CCC1C2(C)C(=O)CC2(C)C(C(C)(O)C(=O)CC(O)C(C)(C)O)C(O)CC12C` (stereo not drawn), the T/C in assay [1] (dose: 4.5 mg/kg/injection, schedule: Q01DX010 (ip), vehicle: carboxymethylcellulose (CMC)) was 95 % of control; in assay [1] (dose: 9.0 mg/kg/injection, schedule: Q01DX010 (ip), vehicle: carboxymethylcellulose (CMC)) it was 101 % of control; in assay [1] (dose: 36.0 mg/kg/injection, schedule: Q01DX010 (ip), vehicle: carboxymethylcellulose (CMC)), 103 % of control.
Turning to `c1ccc(NNC(c2ccccc2)(c2ccccc2)c2ccccc2)cc1`, the T/C in assay [2] (setting [4]) is 90 % of control; in assay [2] (setting [5]) it was 104 % of control; in assay [2] (dose: 200.0 mg/kg/injection, schedule: Q01DX009 (ip), vehicle: Klucel (hydroxypropylcellulose) (HPC)), 100 % of control; in assay [2] (setting [6]), 91 % of control; in assay [2] (dose: 400.0 mg/kg/injection, schedule: Q01DX009 (ip), vehicle: Klucel (hydroxypropylcellulose) (HPC)), 90 % of control; in assay [2] (dose: 400.0 mg/kg/injection, schedule: Q04DX003 (ip), vehicle: Klucel (hydroxypropylcellulose) (HPC)) it was 95 % of control.
On to `O=C(O)CC(SC(CC(=O)O)C(F)(F)C(F)(F)C(F)(F)F)C(F)(F)C(F)(F)C(F)(F)F` (stereo not drawn), for which the T/C in assay [2] (dose: 25.0 mg/kg/injection, schedule: Q01DX009 (ip), vehicle: saline with Tween-80) was 100 % of control; in assay [2] (dose: 50.0 mg/kg/injection, schedule: Q01DX009 (ip), vehicle: saline with Tween-80) it was 110 % of control; in assay [2] (dose: 100.0 mg/kg/injection, schedule: Q01DX009 (ip), vehicle: saline with Tween-80), 110 % of control.
With `O=C(Nc1ccc(C(=O)Nc2cc(S(=O)(=O)O)cc3cccc(S(=O)(=O)O)c23)cc1)Nc1ccc(C(=O)Nc2cc(S(=O)(=O)O)cc3cccc(S(=O)(=O)O)c23)cc1`, the T/C in assay [2] (setting [3]) is 95 % of control; in assay [2] (dose: 50.0 mg/kg/injection, schedule: Q04DX003 (ip), vehicle: Klucel (hydroxypropylcellulose) (HPC)), 100 % of control; in assay [2] (setting [4]), 110 % of control; in assay [2] (setting [5]), 104 % of control; in assay [2] (setting [6]), 86 % of control.
For the molecule `COc1cc(N(CCCl)CCCl)c(OC)cc1/C=N\Nc1nncn1N`, the T/C was 168 % of control in assay [2] (dose: 2.2 mg/kg/injection, schedule: Q01DX009 (ip), vehicle: saline); 163 % of control in assay [2] (dose: 3.3 mg/kg/injection, schedule: Q01DX009 (ip), vehicle: saline); 186 % of control in assay [2] (dose: 5.0 mg/kg/injection, schedule: Q01DX009 (ip), vehicle: saline); 179 % of control in assay [2] (dose: 5.0 mg/kg/injection, schedule: Q04DX003 (ip), vehicle: saline); 172 % of control in assay [2] (dose: 6.25 mg/kg/injection, schedule: Q01DX009 (ip), vehicle: saline); 240 % of control in assay [2] (dose: 7.5 mg/kg/injection, schedule: Q01DX009 (ip), vehicle: saline). The T/C is 212 % of control in assay [2] (dose: 10.0 mg/kg/injection, schedule: Q04DX003 (ip), vehicle: saline); 90 % of control in assay [2] (dose: 12.5 mg/kg/injection, schedule: Q01DX009 (ip), vehicle: saline); 108 % of control in assay [2] (dose: 20.0 mg/kg/injection, schedule: Q04DX003 (ip), vehicle: saline); 86 % of control in assay [2] (dose: 25.0 mg/kg/injection, schedule: Q01DX009 (ip), vehicle: saline); 177 % of control in assay [2] (dose: 25.0 mg/kg/injection, schedule: Q04DX003 (ip), vehicle: saline sonified).
